This is an account of results in ChEMBL document CHEMBL4699477, “Tricyclic sulfones as potent, selective and efficacious RORγt inverse agonists - Exploring C6 and C8 SAR using late-stage functionalization” (Bioorg Med Chem Lett, 2020).

The target in series [1] is T1, Nuclear receptor ROR-gamma (Homo sapiens, UniProt P51449).
T1 sequence (P51449 whole entry): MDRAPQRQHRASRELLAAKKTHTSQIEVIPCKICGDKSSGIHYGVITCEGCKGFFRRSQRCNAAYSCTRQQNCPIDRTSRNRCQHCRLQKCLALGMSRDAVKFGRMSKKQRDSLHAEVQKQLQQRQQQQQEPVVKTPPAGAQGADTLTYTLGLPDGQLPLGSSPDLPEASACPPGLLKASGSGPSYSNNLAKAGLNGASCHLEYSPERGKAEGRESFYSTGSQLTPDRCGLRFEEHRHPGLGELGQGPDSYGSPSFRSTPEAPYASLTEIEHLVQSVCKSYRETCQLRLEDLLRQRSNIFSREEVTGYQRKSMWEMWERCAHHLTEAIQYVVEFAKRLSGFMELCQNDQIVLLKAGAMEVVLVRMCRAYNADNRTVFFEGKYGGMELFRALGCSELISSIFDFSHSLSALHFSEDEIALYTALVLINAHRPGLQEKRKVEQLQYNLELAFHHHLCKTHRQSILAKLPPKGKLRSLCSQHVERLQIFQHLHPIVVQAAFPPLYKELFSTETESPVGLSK
The series can be described thus: Inverse agonist activity at Gal4-fused RORgammat (unknown origin).

The target in series [2] is T1, Nuclear receptor ROR-gamma. As to the kind of experiment: Inverse agonist activity at RORgammat in CD3 and CD28-stimulated human whole blood assessed as reduction in IL17A production incubated for 1 hr before CD3 and CD28 stimulation for 20 hrs by AlphaLISA method. Type of series: tissue-based. For orientation: Bead proximity is the source of the signal in Alpha formats.

Series [3] is described as follows: Metabolic stability in human liver microsomes assessed as half life. Type of series: ADME, Microsome. For orientation: Microsomes from liver hold many membrane-bound enzymes, among them those of drug oxidation.
Series [4] in a line: Metabolic stability in mouse liver microsomes assessed as half life. It counts as ADME, Microsome.
The nature of series [5]: Metabolic stability in rat liver microsomes assessed as half life. It counts as ADME, Microsome.
The nature of series [6]: Cmax in Balb/c mouse at 10 mg/kg, po. Type of series: ADME, organism-based. More on the design: route oral, dose 10 mg/kg. As to conditions: in vivo.
The nature of series [7]: Drug concentration in Balb/c mouse at 10 mg/kg, po measured after 24 hrs. It counts as ADME, organism-based. As to conditions: in vivo, read-out: Drug uptake.
The subject of another series is Mus musculus. The series can be described thus: Protection against recombinant human IL23-induced acanthosis C57BL/6 mouse model assessed as reduction in ear swelling at 50 mg/kg, po administered bid for 9 days. Type of series: functional, organism-based. Particulars: time 9.0 day.
A short description of series [8]: GSH reactivity in human liver cytosol assessed as GSH adduct formation. Type of series: ADME, subcellular, Cytoplasm.

The term EC50 denotes the concentration at which the effect is half-maximal. The half-life is the time needed for the level to fall by half in the phase considered. In general, Cmax refers to the maximum level reached in the sampled fluid or tissue.

The source made the active and inactive calls.

Consider `N#Cc1cc2c(cc1C(F)(C(F)(F)F)C(F)(F)F)CC[C@H]1N(C(=O)[C@H]3CC[C@H](C(=O)O)CC3)CC[C@@]21S(=O)(=O)c1ccc(F)cc1`, for which the EC50 in [1] turned out to be 17 nM; in [2] it was 13 nM. The half-life is greater than 2 h in series [3], greater than 2 h in series [4] and 1.45 h in [5]. The molecule further showed a Cmax in series [6] of 8600 nM. Moreover, the concentration at 24 h in series [7] came out at 1600 nM.

With `O=C(O)[C@H]1CC[C@H](C(=O)N2CC[C@](c3ccc(C(F)(C(F)(F)F)C(F)(F)F)cc3)(S(=O)(=O)c3ccc(F)cc3)C2)CC1`, the inhibition entry with Mus musculus was “Active”.

Take `C[C@H]1C[C@H](C(=O)O)CC[C@H]1C(=O)N1CC[C@@]2(S(=O)(=O)c3ccccc3)c3ccc(C(F)(C(F)(F)F)C(F)(F)F)cc3CC[C@@H]12`: in series [2], the EC50 stood at 52 nM.

Turning to `C[C@H]1C[C@H](C(=O)O)CC[C@H]1C(=O)N1CC[C@@]2(S(=O)(=O)c3ccc(F)cc3)c3ccc(C(F)(C(F)(F)F)C(F)(F)F)cc3CC[C@@H]12` [BMS-986251], the half-life in [3], in [4] and in series [5] was greater than 2 h throughout. For the same molecule, the Activity in series [8] amounted to 6%.

Turning to `O=C(O)[C@H]1CC[C@H](C(=O)N2CC[C@@]3(S(=O)(=O)c4ccc(F)cc4)c4cc(Cl)c(C(F)(C(F)(F)F)C(F)(F)F)cc4CC[C@@H]23)CC1`, the half-life in [3] is greater than 2 h; in series [4], greater than 2 h; in series [5] it was 1.38 h.

In turn, `O=C(O)[C@H]1CC[C@H](C(=O)N2CC[C@@]3(S(=O)(=O)c4ccc(F)cc4)c4ccc(C(F)(C(F)(F)F)C(F)(F)F)cc4CC[C@@H]23)CC1` yielded a Cmax in series [6] of 1400 nM. Further, in series [7], the concentration at 24 h is 400 nM.

For `Cc1cc2c(cc1C(F)(C(F)(F)F)C(F)(F)F)CC[C@H]1N(C(=O)[C@H]3CC[C@H](C(=O)O)CC3)CC[C@@]21S(=O)(=O)c1ccc(F)cc1`, the half-life in series [3], in series [4] and in series [5] was greater than 2 h each time.
